Measured values: publication PMC5578373, “Inhibitory Kappa B Kinase α (IKKα) Inhibitors That Recapitulate Their Selectivity in Cells against Isoform-Related Biomarkers” (Journal of Medicinal Chemistry, 2017)
Where two headings read alike, the source gives them in different places.

What was measured:
[1] = molecular target: T1, IKKα (Homo sapiens, UniProt O15111); test: DELFIA kinase assay, IKKα; assay type: biochemical; settings: for Ki: apparent Ki (Cheng–Prusoff), 40 μM ATP, three independent experiments, read-out: IKKα (Ki ± SEM μM); for IKKα inhibitory activity: SAR discussion
T1 construct: purchased Millipore, Dundee, UK
T1 sequence (O15111 1-745): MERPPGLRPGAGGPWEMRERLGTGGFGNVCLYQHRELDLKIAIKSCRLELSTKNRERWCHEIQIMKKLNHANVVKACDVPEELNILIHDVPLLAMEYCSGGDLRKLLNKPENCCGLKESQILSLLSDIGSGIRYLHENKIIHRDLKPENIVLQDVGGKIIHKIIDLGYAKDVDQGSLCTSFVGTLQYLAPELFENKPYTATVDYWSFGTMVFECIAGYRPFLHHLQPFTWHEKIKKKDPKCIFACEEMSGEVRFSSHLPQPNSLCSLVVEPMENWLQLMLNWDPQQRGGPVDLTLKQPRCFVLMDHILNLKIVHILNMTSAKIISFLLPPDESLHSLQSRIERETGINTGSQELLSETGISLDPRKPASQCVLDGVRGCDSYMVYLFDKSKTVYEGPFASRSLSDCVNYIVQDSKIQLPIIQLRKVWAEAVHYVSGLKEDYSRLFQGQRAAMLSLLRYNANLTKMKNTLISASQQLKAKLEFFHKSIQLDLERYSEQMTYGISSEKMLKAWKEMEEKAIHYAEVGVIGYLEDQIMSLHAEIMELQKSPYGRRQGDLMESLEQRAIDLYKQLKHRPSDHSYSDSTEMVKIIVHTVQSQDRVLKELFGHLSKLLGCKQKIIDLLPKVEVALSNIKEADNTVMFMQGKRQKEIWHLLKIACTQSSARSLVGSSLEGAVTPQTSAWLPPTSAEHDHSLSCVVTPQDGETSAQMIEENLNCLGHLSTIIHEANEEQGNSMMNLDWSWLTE

[2] = molecular target: T2, IKKβ (Homo sapiens, UniProt O14920); test: DELFIA kinase assay, IKKβ; assay type: biochemical
T2 construct: purchased Millipore, Dundee, UK
T2 sequence (O14920 1-756): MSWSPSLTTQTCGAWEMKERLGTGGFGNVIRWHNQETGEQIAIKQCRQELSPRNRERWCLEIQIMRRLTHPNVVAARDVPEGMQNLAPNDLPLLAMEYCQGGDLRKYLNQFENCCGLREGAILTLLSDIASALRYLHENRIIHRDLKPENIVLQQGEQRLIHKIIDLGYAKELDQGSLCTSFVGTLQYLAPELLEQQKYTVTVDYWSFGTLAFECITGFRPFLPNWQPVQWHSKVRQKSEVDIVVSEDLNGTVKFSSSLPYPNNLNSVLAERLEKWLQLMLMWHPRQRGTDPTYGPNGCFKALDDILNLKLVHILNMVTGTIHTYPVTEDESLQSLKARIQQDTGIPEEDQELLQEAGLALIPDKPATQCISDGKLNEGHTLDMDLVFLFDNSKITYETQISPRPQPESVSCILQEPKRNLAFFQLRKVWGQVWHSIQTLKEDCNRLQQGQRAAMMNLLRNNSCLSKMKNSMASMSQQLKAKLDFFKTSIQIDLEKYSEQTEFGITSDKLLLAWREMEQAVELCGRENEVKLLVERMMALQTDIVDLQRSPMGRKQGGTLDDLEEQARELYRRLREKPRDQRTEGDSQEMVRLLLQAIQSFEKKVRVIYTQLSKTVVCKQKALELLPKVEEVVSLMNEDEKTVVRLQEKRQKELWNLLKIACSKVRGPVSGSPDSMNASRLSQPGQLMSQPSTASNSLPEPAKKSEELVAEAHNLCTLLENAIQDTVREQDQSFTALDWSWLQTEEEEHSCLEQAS
From the text: To identify hits that could be developed to exploit the differences between the two isoforms, we screened our in-house compound library compiled of fragments designed to target the common hinge-binding motif found in protein kinases. Using a DELFIA kinase assay kit with minor modifications[29] to measure IKKα and IKKβ inhibitory activity, we identified 2-amino-4-chloro-5-cyanopyrrolo[2,3-d]pyrimidine 4 as our primary hit (Table 1). On the basis of the assumption that the 2-aminopyrrolo[2,3-d]pyrimidine core of compound 4 was binding at the hinge of IKKα, we varied substitution at the 4-position widely. Differences in bulk and polar functionality were incorporated to exploit the greater flexibility in the IKKα ATP binding site and the position of the Asn28 side chain at the back of the pocket.
IKKα and IKKβ inhibitory activity was determined using a dissociation enhanced ligand fluorescent immunoassay (DELFIA) based on the protocol of HTScan IKKβ kinase assay (Cell Signaling Technology, USA).
Recombinant IKKα or IKKβ, 37 nM (Millipore, Dundee, UK), was incubated with IκB-α (Ser32) (New England Biolabs, Hitchin, UK), biotinylated peptide substrate (0.375 μM), and 40 μM ATP in assay buffer (40 mM Tris-HCl (pH 7.5), 20 mM MgCl2, EDTA 1 mM, DTT 2 mM, and BSA 0.01 mg/mL) in a V-well 96-well plate in the presence and absence of test compound. The assay plate was incubated for 60 min at 30 °C, after which the kinase reaction was quenched by the addition of 50 mM EDTA, pH 8. The resulting mixture was transferred to a streptavidin-coated 96-well plate (PerkinElmer, Beaconsfield, UK) and incubated for 1 h at 30 °C to immobilize the substrate peptide. After three washes with wash buffer (0.01 M phosphate buffered saline (PBS), 0.05% Tween-20, pH 7.4), a primary antibody against the phosphorylated substrate (phospho-IκB-α) (Ser32/36) (5A5) mouse mAb (New England Biolabs, Hitchin, UK) (1:1000 dilution with 1% bovine serum albumin (BSA) in wash buffer) was added and incubated at 37 °C for 2 h.
After a further three washes, a secondary europiated antibody (Eu–N1 labeled antimouse IgG, (PerkinElmer, Beaconsfield, UK) diluted 1:500 in 1% BSA/wash buffer) was added and incubated at 30 °C for 30 min. After a further five washes, DELFIA enhancement solution (PerkinElmer, Beaconsfield UK) was added and allowed to incubate for 10 min at room temperature, protected from light, to facilitate the chemifluorescent detection. The relative fluorescence units (RFU) signal were measured on a Wallac Victor 1420 multilabel counter (PerkinElmer, Beaconsfield, UK) in time-resolved fluorescence mode. The counter was set at an excitation wavelength of 340 nm with a 400 μs delay before detecting emitted light at 615 nm. The apparent Ki of the phosphorylated substrate was calculated for each compound using the Cheng–Prusoff equation.

[3] = apparent Ki (Cheng–Prusoff), 40 μM ATP, three independent experiments, read-out: IKKβ (Ki ± SEM μM)

Compound | IKKα inhibitory activity [1] | further results
2-Amino-4-(3-hydroxypropylamino)-7H-pyrrolo[2,3-d]pyrimidine-5-carbonitrile [Compound 23] |  | Ki [1]: 12.1 ± 6.3 µM; Ki [2, 3]: > 30 µM
2-Amino-4-(cyclohexylmethylamino)-7H-pyrrolo[2,3-d]pyrimidine-5-carbonitrile [Compound 10] |  | Ki [1]: > 30 µM; Ki [2, 3]: > 30 µM
4-((2-Amino-5-cyano-7H-pyrrolo[2,3-d]pyrimidin-4-yl)amino)benzoic acid [Compound 12] |  | Ki [1]: > 30 µM; Ki [2, 3]: > 30 µM
N#Cc1c[nH]c2nc(N)nc(N[C@@H]3CC[C@@H](O)[C@H]3O)c12 (relative stereo) [Compound 30, 2-Amino-4-((1RS,2SR,3RS)-2,3-dihydroxycyclopentylamino)-7H-pyrrolo[2,3-d]pyrimidine-5-carbonitrile] | active and selective | 
N#Cc1c[nH]c2nc(N)nc(N3CCC(O)C3)c12 (stereo in doubt) [Compound 25, (R)-2-Amino-4-(3-hydroxypyrrolidin-1-yl)-7H-pyrrolo[2,3-d]pyrimidine-5-carbonitrile] | active and selective against IKKα | 
N#Cc1c[nH]c2nc(N)nc(NC3CCCCC3)c12 [Compound 9, 2-Amino-4-(cyclohexylamino)-7H-pyrrolo[2,3-d]pyrimidine-5-carbonitrile] |  | increase in potency against IKKα ([1]; from methylamine analogue 7 to cyclohexylamine derivative 9): 5 fold
N#Cc1c[nH]c2nc(N)nc(NCc3ccccc3)c12 [Compound 14, 2-Amino-4-(benzylamino)-7H-pyrrolo[2,3-d]pyrimidine-5-carbonitrile] |  | Ki ([2]; supplementary CSV, read-out: IKKbeta Ki (?M)): 19 µM
N#Cc1c[nH]c2nc(N)nc(N3CCCCC3)c12 [Compound 17, 2-Amino-4-(piperidin-1-yl)-7H-pyrrolo[2,3-d]pyrimidine-5-carbonitrile] | active | 
N#Cc1c[nH]c2nc(N)nc(N3CCC(S(N)(=O)=O)CC3)c12 [Compound 18, 1-(2-Amino-5-cyano-7H-pyrrolo[2,3-d]pyrimidin-4-yl)piperidine-4-sulfonamide] | active | 
N#Cc1c[nH]c2nc(N)nc(N3CC[C@@H](O)C3)c12 [Compound 24, (R)-2-Amino-4-(3-hydroxypyrrolidin-1-yl)-7H-pyrrolo[2,3-d]pyrimidine-5-carbonitrile] | inactive | 
N#Cc1c[nH]c2nc(N)nc(N[C@H]3CC[C@H](O)CC3)c12 [Compound 28, 2-Amino-4-((1R,4R)-4-hydroxycyclohexylamino)-7H-pyrrolo[2,3-d]pyrimidine-5-carbonitrile] | active and selective against IKKα | 
N#Cc1c[nH]c2nc(N)nc(N(CCO)C3CCCCC3)c12 [Compound 29, 2-Amino-4-(cyclohexyl(2-hydroxyethyl)amino)-7H-pyrrolo[2,3-d]pyrimidine-5-carbonitrile] | inactive | 
N#Cc1c[nH]c2nc(N)nc(-c3cccc(C(N)=O)c3)c12 [Compound 55, 3-(2-Amino-5-cyano-7H-pyrrolo[2,3-d]pyrimdin-4-yl)benzamide] | inactive | IKKβ inhibitory activity ([2]; SAR discussion): inactive
Nc1nc(Cl)c2cc[nH]c2n1 [Compound 63] | inactive | 
Nc1nc(-c2ccc(S(N)(=O)=O)cc2)c2cc[nH]c2n1 [Compound 64, 4-(2-Amino-7H-pyrrol[2,3-d]pyrimidin-4-yl)benzenesulfonamide] |  | reduction of activity against IKKα ([1]; relative to 48 (absence of 5-cyano group)): more than 30 fold
Nc1nc(NC2CCCCC2)c2c(C(F)(F)F)c[nH]c2n1 [Compound 70, N^4-Cyclohexyl-5-(trifluoromethyl)-7H-pyrrolo[2,3-d]pyrimidine-2,4-diamine] | attenuated all IKKα inhibitory activity | 
NC(=O)c1c[nH]c2nc(N)nc(N[C@H]3CC[C@H](O)CC3)c12 [Compound 71, 2-Amino-4-((1R,4R)-4-hydroxycyclohexylamino)-7H-pyrrolo[2,3-d]pyrimidine-5-carboxamide] | attenuated all IKKα inhibitory activity | 
